Results as given in patent publication US4603123A, “Compounds having antiinflammatory activity, obtained by complexation of piroxican with β-cyclodextrin, and pharmaceutical compositions containing them” (priority 1984, dated 1986).
In brackets after ≈: the same amount, converted by molar mass. Like-named read-outs stand apart in the source and are kept apart here.

Legend:
[1] = Dissolution test in water, Dissolution Tester, 25° C.
Experimental: 7.5 Grams of piroxicam/β-cyclodextrin were poured into 150 ml of water at 25° C. under stirring. At predetermined time intervals, samples of 5 ml of suspension were collected and filtered through 0.2μ. […] were diluted 1 to 500 with 0.1 N NaOH in methanol immediately after the filtration. The whole was again filtered through paper.
The amount of piroxicam in the solution was spectrophotometrically determined at 358 nm against a solution of 0.1 N NaOH in methanol.

[2] = Plasma kinetics of piroxicam in the rabbit after oral administration; assay type: in vivo, male New Zealand White rabbits
Experimental: For these investigations, male New Zealand White rabbits, weighing 2.5-3.0 kg were employed. The animals were kept at constant temperature and fastened for the 17 hours preceeding the experiments. Water was given ad libitum. […] The determination of the plasma levels of the active principle, at the different times since the administration, was carried out by High Pressure Liquid Chromatography (HPLC).

[3] = tested on: phenylquinone induced writhing; test: Phenylquinone induced writhing test (kinetic of the analgesic activity); assay type: in vivo, female NMRI mice; settings: mouse, oral, 0.5 mg/kg of active substance
Experimental: The employed experimental model is a slight modification of that described by Siegmund, J. Pharm. Exptl. Ther., 119, 184, 1957.
Female NMRI mice, housed under standard conditions, fastened for 18 hours, were employed as the test animals. Water was available ad libitum.
The compounds under study were orally administered by oesophageal gavage, suspended in an aqueous solution containing 0.5% of carboxymethylcellulose, at a concentration corresponding to 0.5 mg/kg of active substance (piroxicam).

gastrointestinal mucosa = settings: background; cited from earlier work
[4] = background; cited from earlier work
[5] = Gastrolesive action in rats and therapeutic index UD0/ED30; settings: in vivo, rat
Experimental: The gastrolesive action was tested on rats fastened for 18 hours, through macroscopical examination of the gastric mucosa, 5 hours after the administration of the substances under investigation. For each treatment, the regression lines log. of the dosage-mm of ulceration (single values for each animal) were determined. These lines allowed to calculate, for each compound, the UD0 values i.e., the maximum dosages at which no lesions are observed.
Finally, it was also determined the therapeutic index of the new compound piroxicam/β-cyclodextrin, in comparison with piroxicam. Said index was expressed as the ratio UD0 /ED30 wherein UD0 and ED30 are as above defined.

[6] = tested on: carrageenin induced oedema; test: Carrageenin induced oedema test in rats (antiinflammatory activity); assay type: in vivo, male Crl:CD(SD) rats; settings: oral, rat
Experimental: The antiinflammatory activity was determined by means of the carrageenin induced oedema test, according to the methodology reported by C. A. Winter et al in Proc. Soc. Exptl. […] As the test animals, male Crl:CD(SD) rats, weighing 150-170 g, were employed. The animals were housed under standard conditions and fastened for 18 hours before the beginning of the experiment. Water was available ad libitum.
The obtained results were expressed both as ED50 values, determined in correspondence of the activity peak on the regression line log. of the dosage-% inhibition of the oedema, and as ED30 values, calculated on the regression lines log. of the dosage-% inhibition of the oedema over the controls, determined as the mean value of AUC (area under Curve representing the development of the paw volume in the time).
In addition, it was determined the kinetic of the activity of the two formulations under investigation, by calculating the ED30 values at 2, 3, 4 and 6 hours since the carrageenin injection.

[7] = Plasma kinetics of piroxicam in the dog after oral administration; set-up: species or system Beagle dogs; settings: in vivo, 10 mg/kg of active ingredient
Experimental: The dogs were kept at constant temperature and fastened at least for 17 hours before the beginning of the experiment. Water was available ad libitum.
The two substances to be investigated were orally administered at a dosage corresponding to 10 mg/kg of active ingredient, according to a crossover scheme. The determination of the plasma concentrations of the active ingredient, at a different time intervals since the administration, was carried out by High Pressure Liquid Chromatography (HPLC).

[8] = plasma, 10 mg/kg of active ingredient, mean

## CN1C(C(=O)Nc2ccccn2)=C(O)c2ccccc2S1(=O)=O [Piroxicam, 4-hydroxy-2-methyl-N-2-pyridyl-2H-1,2-benzothiazine-3-carboxamide-1,1-dioxide]
[1]
  solubility at 0.5 h: 111 µg/mL (≈ 335 µM)
[2]
  bioavailability: almost complete bioavailability
[2]; plasma, 10 mg/kg of active ingredient
  Tmax: 2.3 h
[2]; plasma, 10 mg/kg of active ingredient, 0.50 h, mean
  concentration at 0.5 h: 4300 ng/mL
[2]; plasma, 10 mg/kg of active ingredient, 1 h, mean
  concentration at 1 h: 7400 ng/mL
[2]; plasma, 10 mg/kg of active ingredient, 2 h, mean
  concentration at 2 h: 10900 ng/mL
[2]; plasma, 10 mg/kg of active ingredient, 4 h, mean
  concentration at 4 h: 10100 ng/mL
[2]; plasma, 10 mg/kg of active ingredient, 8 h, mean
  concentration at 8 h: 6500 ng/mL
[2]; plasma, 10 mg/kg of active ingredient, 24 h, mean
  concentration at 24 h: 300 ng/mL
[2]; [8]
  AUC(0-t) at 2 h: 13200 ng·h/mL
  AUC(0-t) at 24 h: 121000 ng·h/mL
  Cmax: 11700 ng/mL
[3]
  time of the activity peak (analgesic): 20 min
[3]; 5 minutes after the administration
  percentage of the maximum evidenced inhibition (writhing) at 5 minutes: 78%
Gastrointestinal mucosa
  effects on the gastrointestinal mucosa: responsible of lesive effects on the gastrointestinal mucosa
[4]
  solubility in water: practically insoluble in water
[5]; 5 hours after administration, dosage as piroxicam, read-out: Gastrolesive activity UD0 (maximum dosage at which no lesions are observed)
  NOAEL at 5 h: 1.1 mg/kg
[5]; piroxicam = 1, read-out: Relative therapeutic index
  selectivity ratio: 1
[5]; read-out: Absolute therapeutic index (UD0/ED30)
  selectivity ratio: 0.44
[6]; Rat2, 2 h since carrageenin injection, read-out: ED30 at 2 h
  ED30: 0.6 mg/kg
[6]; 3 h since carrageenin injection, read-out: ED30 at 3 h
  ED30: 1.6 mg/kg
[6]; 4 h since carrageenin injection, read-out: ED30 at 4 h
  ED30: 3.1 mg/kg
[6]; 6 h since carrageenin injection, read-out: ED30 at 6 h
  ED30: 9.7 mg/kg
[6]; AUC of paw volume in time, dosage as piroxicam, read-out: Activity on AUC ED30
  ED30: 2.5 mg/kg
[6]; at the activity peak, dosage as piroxicam
  ED50: 2.3 mg/kg
[7]
  Tmax: 1.8 h
[7]; 0.25 h, mean
  concentration at 0.25 h: 1000 ng/mL
[7]; 0.50 h, mean
  concentration at 0.5 h: 2800 ng/mL
[7]; 1 h, mean
  concentration at 1 h: 12700 ng/mL
[7]; 2 h, mean
  concentration at 2 h: 19400 ng/mL
[7]; 4 h, mean
  concentration at 4 h: 18900 ng/mL
[7]; 8 h, mean
  concentration at 8 h: 14200 ng/mL
[7]; 24 h, mean
  concentration at 24 h: 11500 ng/mL
[7]; 48 h, mean
  concentration at 48 h: 9200 ng/mL
[7]; 72 h, mean
  concentration at 72 h: 3000 ng/mL
[7]; mean
  AUC(0-t) at 2 h: 20400 ng·h/mL
  AUC(0-t) at 72 h: 724000 ng·h/mL
  Cmax: 20000 ng/mL
